One assay concerns MV-4-11 cells. Put plainly: Cell viability in MV-4-11 cells (CellTiter Glo2). It counts as cell-based. Conditions: Homo sapiens, MV4-11, 96 h, 8-point dose response, 4 days.
The next assay deals with T1, NAMPT (Homo sapiens, UniProt P43490).
T1 construct: purchased Abcam ab221819
The experiment in a line: NAMPT Activity Assay (Abcam #ab221819). Conditions: purified NAMPT, two-step reaction, OD450 nm; percent inhibition vs no drug; compound concentration not stated. It counts as biochemical.

[1] abbreviates: CellTiter Glo2 (Table E1), read-out: MV-4-11 IC50.
The mark [2] stands for this setting: CellTiter Glo2 (Table E2), read-out: MV-4-11 Cell Viability, MV-4-11 IC50.

Molecules are shown by their SMILES. Read-outs that look alike come from different tables or passages of the source.

T1 sequence (P43490 whole entry): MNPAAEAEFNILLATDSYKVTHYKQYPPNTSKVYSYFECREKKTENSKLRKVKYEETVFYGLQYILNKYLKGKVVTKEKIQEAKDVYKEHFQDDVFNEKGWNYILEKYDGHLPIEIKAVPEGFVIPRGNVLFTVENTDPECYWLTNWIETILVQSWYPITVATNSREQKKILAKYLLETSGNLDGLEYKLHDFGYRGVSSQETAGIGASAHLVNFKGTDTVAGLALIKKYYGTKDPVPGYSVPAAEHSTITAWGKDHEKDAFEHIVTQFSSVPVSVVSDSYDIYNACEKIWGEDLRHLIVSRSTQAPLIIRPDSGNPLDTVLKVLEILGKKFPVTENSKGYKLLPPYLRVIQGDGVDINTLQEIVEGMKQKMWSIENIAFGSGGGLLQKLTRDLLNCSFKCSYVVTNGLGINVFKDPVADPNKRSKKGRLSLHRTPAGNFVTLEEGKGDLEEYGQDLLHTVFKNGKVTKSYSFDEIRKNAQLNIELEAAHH
Description for MV-4-11 cells: Approximately 10,000 MV-4-11 cells per well of a 96-well plate were treated with DMSO (no drug control) or each compound in Tables E1 and E2 in an 8-point dose response for 4 days, Cell viability was measured using CellTiter Glo2. The ICse of each compound was determined using CDD Vault.
Description for NAMPT: The NAMPT Activity Assay (Abcam #ab221819) was performed following manufacturers two-step reaction protocol. Briefly, compounds were added to a clear 96-well plate using the HP D300e Digital Dispenser. Purified NAMPT was added to all wells except the No NAMPT controls. Reaction Mix #1 was added to each well and the plate was incubated at 30*C for 1 hr followed by the addition of Reaction Mix #2. Absorbance was measured at OD450 nm using a multimode plate reader. Readings were recorded for 5 minutes and percent inhibition was calculated using: (1-(OD450 nm compound/OD450 nm no drug))*100.

Take `CCC(=O)N(C)c1ccc(-c2ccc(C(=O)NCc3ccc(Cl)nc3)cn2)cc1` [Compound I-396, N-[(6-chloro-3-pyridyl)methyl]-6-[4-[methyl(propanoyl)amino]phenyl]pyridine-3-carboxamide]: the IC50 with MV-4-11 cells (setting [1]) was found to be 6560 nM. Further, the “NAMPT Inhibition Code” value on NAMPT was “C (C = ≥66% inhibition)”.

Consider `CC(=O)N(CC1CC1)c1ccc(-c2ccc(C(=O)NCc3cccnc3F)cn2)cc1Cl` [Compound I-685, 6-[4-[Acetyl(cyclopropylmethyl)amino]-3-chloro-phenyl]-N-[(2-fluoro-3-pyridyl)methyl]pyridine-3-carboxamide], for which the IC50 in the assay with MV-4-11 cells (setting [2]) stood at 340 nM. Besides, the “NAMPT Inhibition Code” value at NAMPT is recorded as “C (C = ≥66% inhibition)”.

Turning to `CC(=O)CC(=O)N(c1ccc(-c2ccc(C(=O)NCc3cccnc3C)cn2)cc1C)C(C)C` [Compound I-497, 6-(4-(N-isopropyl-3-oxobutanamido)-3-methylphenyl)-N-((2-methylpyridin-3-yl)methyl)nicotinamide], in the assay on MV-4-11 cells (setting [2]), the IC50 came out at 5720 nM. Besides, on NAMPT, the “NAMPT Inhibition Code” value was “A (A = <33% inhibition)”.

For `CC(=O)N(CC1CC1)c1ccc(-c2ccc(C(=O)NCc3cccnc3)cn2)cc1Cl` [Compound I-602, 6-[4-[Acetyl(cyclopropylmethyl)amino]-3-chloro-phenyl]-N-(3-pyridylmethyl)pyridine-3-carboxamide], the IC50 in the assay on MV-4-11 cells (setting [2]) was 5.56 nM. Further, the “NAMPT Inhibition Code” value at NAMPT is “C (C = ≥66% inhibition)”.

For `CC(=O)N(CC1CC(F)(F)C1)c1ccc(-c2ccc(C(=O)NCc3cccnc3C)cn2)cc1` [Compound I-517, 6-[4-[Acetyl-[(3,3-difluorocyclobutyl)methyl]amino]phenyl]-N-[(2-methyl-3-pyridyl)methyl]pyridine-3-carboxamide], in the assay on MV-4-11 cells (setting [2]), the IC50 was determined as 2440 nM. Besides, the “NAMPT Inhibition Code” value on NAMPT is “A (A = <33% inhibition)”.

On to `CCC(=O)N(C)c1ccc(-c2ccc(C(=O)NCc3ccc(F)nc3)cn2)cc1` [Compound I-393, N-[(6-fluoro-3-pyridyl)methyl]-6-[4-[methyl(propanoyl)amino]phenyl]pyridine-3-carboxamide], for which the IC50 in the assay on MV-4-11 cells (setting [1]) was greater than 30000 nM. Besides, the “NAMPT Inhibition Code” value at NAMPT was “A (A = <33% inhibition)”.

`CCC(=O)N(C)c1ccc(-c2ccc(C(=O)NCc3cccnc3C(F)(F)F)cn2)cc1C` [Compound I-511, 6-[3-Methyl-4-[methyl(propanoyl)amino]phenyl]-N-[[2-(trifluoromethyl)-3-pyridyl]methyl]pyridine-3-carboxamide]: in the assay with MV-4-11 cells (setting [2]), the IC50 is 7070 nM. Further, the “NAMPT Inhibition Code” value at NAMPT is “A (A = <33% inhibition)”.

Consider `CC(=O)N(CCC(F)(F)F)c1ccc(-c2ccc(C(=O)NCc3cccnc3)cn2)cc1C` [Compound I-601, 6-[4-[Acetyl(3,3,3-trifluoropropyl)amino]-3-methyl-phenyl]-N-(3-pyridylmethyl)pyridine-3-carboxamide], for which the IC50 in the assay with MV-4-11 cells (setting [2]) is 62.7 nM. In addition, the “NAMPT Inhibition Code” value at NAMPT was “B (B = ≥33 to <66% inhibition)”.

On to `CC(=O)N(CC1COC1)c1ccc(-c2ccc(C(=O)NCc3cccnc3)cn2)cc1` [Compound I-447, 6-[4-[acetyl(oxetan-3-ylmethyl)amino]phenyl]-N-(3-pyridylmethyl)pyridine-3-carboxamide], for which the IC50 with MV-4-11 cells (setting [2]) is 493 nM. Moreover, the “NAMPT Inhibition Code” value at NAMPT is “A (A = <33% inhibition)”.

As to `CCC(=O)N(C)c1ccc(-c2ccc(C(=O)NCc3ccc(C)nc3C)cn2)cc1` [Compound I-394, N-[(2,6-dimethyl-3-pyridyl)methyl]-6-[4-[methyl(propanoyl)amino]phenyl]pyridine-3-carboxamide], the IC50 with MV-4-11 cells (setting [1]) turned out to be 3520 nM. Besides, the “NAMPT Inhibition Code” value at NAMPT is on record as “A (A = <33% inhibition)”.

Turning to `CC(=O)N(CC1CC1)c1ccc(-c2ccc(C(=O)NCc3ccc(Cl)nc3)cn2)cc1Cl` [Compound I-689, 6-[4-[Acetyl(cyclopropylmethyl)amino]-3-chloro-phenyl]-N-[(6-chloro-3-pyridyl)methyl]pyridine-3-carboxamide], in the assay on MV-4-11 cells (setting [2]), the IC50 came to 32.8 nM. The “NAMPT Inhibition Code” value at NAMPT is “C (C = ≥66% inhibition)”.

Turning to `CCCN(C(C)=O)c1ccc(-c2ccc(C(=O)NCc3cccnc3C)cn2)cc1C` [Compound I-446, 6-[4-[acetyl(propyl)amino]-3-methyl-phenyl]-N-[(2-methyl-3-pyridyl)methyl]pyridine-3-carboxamide], in the assay on MV-4-11 cells (setting [1]), the concentration for half-maximal inhibition (IC50) is 2170 nM. Also, the “NAMPT Inhibition Code” value on NAMPT is listed as “A (A = <33% inhibition)”.

For the compound `CCCN(C(C)=O)c1ccc(-c2ccc(C(=O)NCc3cccnc3C)cn2)cc1Cl` [Compound I-458, 6-[4-[acetyl(propyl)amino]-3-chloro-phenyl]-N-[(2-methyl-3-pyridyl)methyl]pyridine-3-carboxamide], the IC50 with MV-4-11 cells (setting [2]) was 1710 nM. Besides, on NAMPT, the “NAMPT Inhibition Code” value is listed as “A (A = <33% inhibition)”.

For `CCOC(=O)NCCN(C(C)=O)c1ccc(-c2ccc(C(=O)NCc3cccnc3C)cn2)cc1C` [Compound I-486, Ethyl N-[2-[N-acetyl-2-methyl-4-[5-[(2-methyl-3-pyridyl)methylcarbamoyl]-2-pyridyl]anilino]ethyl]carbamate], the IC50 with MV-4-11 cells (setting [2]) was found to be 2700 nM. Further, the “NAMPT Inhibition Code” value on NAMPT is given as “A (A = <33% inhibition)”.

For `CC(=O)N(CC1CC1)c1ccc(-c2ccc(C(=O)Nc3cccnc3)cn2)cc1Cl` [Compound I-683, 6-[4-[Acetyl(cyclopropylmethyl)amino]-3-chloro-phenyl]-N-(3-pyridyl)pyridine-3-carboxamide], the IC50 in the assay on MV-4-11 cells (setting [2]) is greater than 997 nM. Also, the “NAMPT Inhibition Code” value at NAMPT is reported as “C (C = ≥66% inhibition)”.

Regarding `CCC(=O)N(C)c1ccc(-c2ccc(C(=O)NCc3ccc(NCCN)nc3)cn2)cc1C` [Compound I-527, N-((6-((2-aminoethyl)amino)pyridin-3-yl)methyl)-6-(3-methyl-4-(N-methylpropionamido)phenyl)nicotinamide], the IC50 in the assay with MV-4-11 cells (setting [2]) was 787 nM. For the same compound, the “NAMPT Inhibition Code” value on NAMPT is given as “A (A = <33% inhibition)”.

For the compound `CCC(=O)N(C)c1ccc(-c2ccc(C(=O)Nc3cccnc3)cn2)cc1` [Compound I-353, 6-[4-[methyl(propanoyl)amino]phenyl]-N-(3-pyridyl)pyridine-3-carboxamide], the IC50 in the assay with MV-4-11 cells (setting [1]) stood at 941 nM. For the same compound, the “NAMPT Inhibition Code” value on NAMPT is “C (C = ≥66% inhibition)”.

For the compound `CC(=O)N(CC1CC1)c1ccc(-c2ccc(C(=O)Nc3ccncc3)cn2)cc1Cl` [Compound I-684, 6-[4-[Acetyl(cyclopropylmethyl)amino]-3-chloro-phenyl]-N-(4-pyridyl)pyridine-3-carboxamide], the IC50 with MV-4-11 cells (setting [2]) worked out at 341 nM. In addition, the “NAMPT Inhibition Code” value at NAMPT was “A (A = <33% inhibition)”.

Consider `CC(=O)N(CC(C)C)c1ccc(-c2ccc(C(=O)NCc3cccnc3C)cn2)cc1` [Compound I-467, 6-[4-[Acetyl(isobutyl)amino]phenyl]-N-[(2-methyl-3-pyridyl)methyl]pyridine-3-carboxamide], for which, in the assay with MV-4-11 cells (setting [2]), the IC50 was 4340 nM. On NAMPT, the “NAMPT Inhibition Code” value was “A (A = <33% inhibition)”.

Turning to `CCC(=O)N(C)c1ccc(-c2ccc(C(=O)NCc3cccnc3Cl)cn2)cc1` [Compound I-395, N-[(2-chloro-3-pyridyl)methyl]-6-[4-[methyl(propanoyl)amino]phenyl]pyridine-3-carboxamide], the IC50 with MV-4-11 cells (setting [1]) was determined as 6110 nM. Moreover, the “NAMPT Inhibition Code” value at NAMPT was “A (A = <33% inhibition)”.

Regarding `CCc1cc(-c2ccc(C(=O)NCc3cccnc3C)cn2)ccc1N(C)C(C)=O` [Compound I-445, 6-[4-[acetyl(methyl)amino]-3-ethyl-phenyl]-N-[(2-methyl-3-pyridyl)methyl]pyridine-3-carboxamide], the IC50 in the assay on MV-4-11 cells (setting [1]) turned out to be 3690 nM. The “NAMPT Inhibition Code” value on NAMPT is given as “A (A = <33% inhibition)”.

On to `CC(=O)N(C)c1ccc(-c2ccc(C(=O)NCc3cccnc3)cn2)cc1C(F)(F)F` [Compound I-658, 6-[4-[Acetyl(methyl)amino]-3-(trifluoromethyl)phenyl]-N-(3-pyridylmethyl)pyridine-3-carboxamide], for which the IC50 in the assay on MV-4-11 cells (setting [2]) was 150 nM. In addition, on NAMPT, the “NAMPT Inhibition Code” value is listed as “B (B = ≥33 to <66% inhibition)”.

Consider `CC(=O)N(CCC(F)(F)F)c1ccc(-c2ccc(C(=O)NCc3cccnc3)cn2)cc1` [Compound I-482, 6-[4-[Acetyl(3,3,3-trifluoropropyl)amino]phenyl]-N-(3-pyridylmethyl)pyridine-3-carboxamide], for which, in the assay with MV-4-11 cells (setting [2]), the IC50 was 226 nM. Besides, on NAMPT, the “NAMPT Inhibition Code” value is given as “B (B = ≥33 to <66% inhibition)”.

Turning to `CC(C)CN(C(=O)C(F)F)c1ccc(-c2ccc(C(=O)NCc3cccnc3)cn2)cc1` [Compound I-468, 6-[4-[(2,2-Difluoroacetyl)-isobutyl-amino]phenyl]-N-(3-pyridylmethyl)pyridine-3-carboxamide], the IC50 in the assay on MV-4-11 cells (setting [2]) was determined as 33.3 nM. In addition, the “NAMPT Inhibition Code” value on NAMPT is “B (B = ≥33 to <66% inhibition)”.

For `CCC(=O)N(CCNC(=O)OC(C)(C)C)c1ccc(-c2ccc(C(=O)NCc3cccnc3)cc2)cc1` [Compound I-417, tert-butyl N-[2-[N-propanoyl-4-[4-(3-pyridylmethylcarbamoyl)phenyl]anilino]ethyl]carbamate], the half-maximal inhibitory concentration (IC50) in the assay with MV-4-11 cells (setting [1]) was 105 nM. Moreover, the “NAMPT Inhibition Code” value on NAMPT is “A (A = <33% inhibition)”.

Take `CC(=O)N(CC(F)F)c1ccc(-c2ccc(C(=O)NCc3cccnc3C)cn2)cc1` [Compound I-449, 6-[4-[acetyl(2,2-difluoroethyl)amino]phenyl]-N-[(2-methyl-3-pyridyl)methyl]pyridine-3-carboxamide]: the IC50 in the assay on MV-4-11 cells (setting [2]) came to 5180 nM. Further, the “NAMPT Inhibition Code” value at NAMPT was “A (A = <33% inhibition)”.

As to `CCN(C(C)=O)c1ccc(-c2ccc(C(=O)NCc3cccnc3)cn2)cc1Cl` [Compound I-652, 6-[4-[Acetyl(ethyl)amino]-3-chloro-phenyl]-N-(3-pyridylmethyl)pyridine-3-carboxamide], the IC50 in the assay with MV-4-11 cells (setting [2]) stood at 92.4 nM. Besides, the “NAMPT Inhibition Code” value on NAMPT is given as “C (C = ≥66% inhibition)”.

Regarding `CCC(=O)N(C)c1ccc(-c2ccc(C(=O)NCc3ccc(C)nc3C)cc2)cc1Cl` [Compound I-481, 4-[3-chloro-4-[methyl(propanoyl)amino]phenyl]-N-[(2,6-dimethyl-3-pyridyl)methyl]benzamide], in the assay on MV-4-11 cells (setting [2]), the IC50 was 104 nM. For the same compound, at NAMPT, the “NAMPT Inhibition Code” value was “A (A = <33% inhibition)”.

Source of the values: patent publication US12612368B2 (Remedy Plan, Inc., priority 2019, dated 2026).
